# Source: patent publication EP4008401A1, “COMPOSITION FOR CARTILAGE REGENERATION PROMOTION” (Suntory Holdings Limited, priority 2019, dated 2021)
# System: human synovial cells
# Test: Cartilage pellet culture of human synovial cells (weight of cartilage pellets; differentiation into cartilage cells)
# Format: cell-based
# Details: Example 1; 50 µM; result in words
# Description: Purchased human synovial cells (available from Toyobo Co., Ltd.; HFLS (Normal), cryopreserved cells (adult); Code No. CA40805a) were seeded into a 150 mm culture dish (available from Corning) at a low density of 50 cells/cm^2 and cultured for 14 days.
# The human synovial cells were cultured in the following medium. • α-MEM (available from Nacalai Tesque Inc.) • 10% Fetal bovine serum (available from Sigma-Aldrich) Antibiotic-Antimycotic Mixed Stock Solution (available from Nacalai Tesque Inc.)
# Proliferated human synovial cells were detached with Accutase (available from Funakoshi Co., Ltd.), and the medium containing 20 × 10^4 cells was placed in a 15 mL tube made of polypropylene, followed by centrifugation at 1000 × rpm for five minutes. The recovered human synovial cells were cultured in a medium containing a test compound shown in Table 1 for three weeks, and the weight of the resultant cartilage pellets was measured (N = 3, each). The medium containing the test compound was replaced once in two or three days. The test compound was dissolved in the medium using dimethyl sulfoxide (DMSO) (available from Nacalai Tesque Inc.; final concentration: 0.1%) to a final concentration of 50 µM. The test compound was taxifolin (available from Sigma-Aldrich) or hesperetin (available from Funakoshi Co., Ltd.).
# The cartilage pellets were cultured in the following medium. The control was cultured by adding DMSO without test compounds to the medium described below (final concentration of DMSO: 0.1%).
# DMEM high-glucose (available from Thermo Fisher Scientific) 50 µg/mL L-ascorbic acid 2-phosphate sesquimagnesium salt hydrate (available from Sigma-Aldrich) 40 µg/mL L-proline (available from Sigma-Aldrich) 100 µg/mL Sodium pyruvate (available from Sigma-Aldrich) 50 mg/mL ITS + Premix (available from Corning) 10 ng/mL Transforming growth factor β3 (available from Sigma-Aldrich) 100 nM Dexamethasone (available from Sigma-Aldrich) 50 ng/mL Bone morphogenetic protein 2 (BMP-2) (available from Sigma-Aldrich)
# In Table 1, the weight of pellets (g) is the weight of the cartilage pellets (average with N of 3), and SE is the standard error of the weight of pellets. […] A significant difference in the rate of increase (%) determined from the weight of the cartilage pellets relative to the control was tested by Student's t-test, with the significance level being 5% or lower. […]
# The test of Example 1 was repeated, except that quercetin (available from Nacalai Tesque Inc.), isorhamnetin (available from Funakoshi Co., Ltd.), or eriodictyol (available from Funakoshi Co., Ltd.) was used as a test compound, and the test compound in the medium was adjusted to a final concentration of 5 µM. […] A significant difference test was performed as in Example 1, with the significance level being 5% or lower.
# The test of Example 1 was repeated, except that luteolin (available from Funakoshi Co., Ltd.) or morin (available from Nacalai Tesque Inc.) was used as a test compound, and the test compound in the medium was adjusted to a final concentration of 5 µM. […] A significant difference test was performed as in Example 1, with the significance level being 5% or lower and the marginal significance level being 10% or lower. […]
# The test of Example 1 was repeated, except that the compounds shown in Table 4 were used as test compounds and tested with N = 1. […] The final concentration of each of the compounds Nos. 1 to 15 in the medium was adjusted to 5 µM. The final concentration of each of the compounds Nos. 16 to 21 in the medium was adjusted to 50 µM.
row,SMILES,weight of the cartilage pellets as compared to the control
1,"O=C1c2c(O)cc(O)cc2O[C@H](c2ccc(O)c(O)c2)[C@H]1O [Taxifolin, taxifolin]",significant increase
2,"COc1ccc([C@@H]2CC(=O)c3c(O)cc(O)cc3O2)cc1O [Hesperetin, hesperetin]",significant increase

# Same assay, conditions: Example 1; test compound 50 µM in medium, cultured three weeks, average with N of 3
row,SMILES,Weight of pellets (g) (Ave)
1,"O=C1c2c(O)cc(O)cc2O[C@H](c2ccc(O)c(O)c2)[C@H]1O [Taxifolin, taxifolin]",5.73
2,"COc1ccc([C@@H]2CC(=O)c3c(O)cc(O)cc3O2)cc1O [Hesperetin, hesperetin]",5.50

# Same assay, conditions: Example 2; test compound 5 µM in medium, cultured three weeks, average with N of 3
row,SMILES,Weight of pellets (g) (Ave)
1,"COc1cc(-c2oc3cc(O)cc(O)c3c(=O)c2O)ccc1O [Isorham netin, isorhamnetin]",5.77
2,"O=c1c(O)c(-c2ccc(O)c(O)c2)oc2cc(O)cc(O)c12 [Quercetin, quercetin]",5.90
3,"O=C1C[C@@H](c2ccc(O)c(O)c2)Oc2cc(O)cc(O)c21 [Eriodictyol, eriodictyol]",4.80

# Same assay, conditions: Example 3; test compound 5 µM in medium, cultured three weeks, average of N of 3
row,SMILES,Weight of pellets (g) (Ave)
1,"O=c1cc(-c2ccc(O)c(O)c2)oc2cc(O)cc(O)c12 [Luteolin, luteolin]",3.53
2,"O=c1c(O)c(-c2ccc(O)cc2O)oc2cc(O)cc(O)c12 [Morin, morin]",4.00

# Same assay, conditions: Examples 2 and 3; 5 µM; result in words
row,SMILES,weight of the cartilage pellets as compared to the control
1,"COc1cc(-c2oc3cc(O)cc(O)c3c(=O)c2O)ccc1O [Isorham netin, isorhamnetin]",significant increase
2,"O=c1cc(-c2ccc(O)c(O)c2)oc2cc(O)cc(O)c12 [Luteolin, luteolin]",increase
3,"O=c1c(O)c(-c2ccc(O)cc2O)oc2cc(O)cc(O)c12 [Morin, morin]",significant increase
4,"O=c1c(O)c(-c2ccc(O)c(O)c2)oc2cc(O)cc(O)c12 [Quercetin, quercetin]",significant increase
5,"O=C1C[C@@H](c2ccc(O)c(O)c2)Oc2cc(O)cc(O)c21 [Eriodictyol, eriodictyol]",significant increase

# Same assay, conditions: Homo sapiens, Synovial cell, 504 h, read-out: Rate of increase (%)
SMILES,activity at 50 µM [%],activity at 5 µM [%]
Oc1cc(O)c2c(c1)OC(c1ccc(O)c(O)c1)C(O)C2 (stereo not drawn) [Catechin],112,–
O=C(/C=C/c1ccc(O)cc1)c1ccc(O)cc1O [Isoliquiritigenin],–,82.1
Oc1ccc([C@H]2COc3cc(O)ccc3C2)cc1 [Equol],–,81.4

# Same assay, conditions: Homo sapiens, Synovial cell, 504 h; Comparative Example 1; compounds Nos. 1 to 15, 5 µM; weight relative to control taken as 100%; N = 1; read-out: Rate of increase (%)
row,SMILES,activity at 5 µM [%]
1,O=c1cc(-c2ccc(O)cc2)oc2cc(O)cc(O)c12 [Apigenin],105
2,"O=c1c(-c2ccc(O)c(O)c2)coc2cc(O)ccc12 [7,3',4'-Trihydroxyisoflavone]",95.3
3,COc1ccc(-c2coc3cc(O)ccc3c2=O)cc1 [Formononetin],100
4,O=c1c(-c2ccc(O)cc2)coc2cc(O)ccc12 [Daidzein],100
5,Oc1cc(O)c2cc(O)c(-c3cc(O)c(O)c(O)c3)[o+]c2c1 [Delphinidin],41.9
6,C[C@@H]1O[C@@H](O[C@H]2C(=O)c3c(O)cc(O)cc3O[C@@H]2c2ccc(O)c(O)c2)[C@H](O)[C@H](O)[C@H]1O [Astilbin],60.5
7,COc1ccc(-c2coc3cc(O)cc(O)c3c2=O)cc1 [Biochaninn A],21.4
8,"O=C(/C=C/c1ccc(O)cc1)c1c(O)cc(O)cc1O [4,2',4',6'-Tetrahydroxychalcon]",118
9,O=c1c(O)c(-c2cc(O)c(O)c(O)c2)oc2cc(O)cc(O)c12 [Myricetin],69.8
10,O=c1c(-c2ccc(O)cc2)coc2cc(O)cc(O)c12 [Genistein],104
11,COc1ccc(-c2coc3cc(O)ccc3c2=O)cc1O [Calycosin],95.3
12,Oc1cc(O)c2cc(O)c(-c3ccc(O)c(O)c3)[o+]c2c1 [Cyanidin],51.2
13,"O=C(/C=C/c1ccc(O)c(O)c1)c1c(O)cc(O)cc1O [3,4,2',4',6'-Pentahydroxychalcon]",111

# Same assay, conditions: Homo sapiens, Synovial cell, 504 h; Comparative Example 1; compounds Nos. 16 to 21, 50 µM; weight relative to control taken as 100%; N = 1; read-out: Rate of increase (%)
row,SMILES,activity at 50 µM [%]
1,O=C1c2c(O)cc(O)cc2OCC1c1ccc(O)cc1 (stereo not drawn) [Dihydrogenistein],92.9
2,O=c1c(O)c(-c2ccc(O)cc2)oc2cc(O)cc(O)c12 [Kaempferol],95.8
3,O=C1C[C@@H](c2ccc(O)cc2)Oc2cc(O)cc(O)c21 [Naringenin],117
4,O=c1cc(-c2ccccc2)oc2cc(O)cc(O)c12 [Chrysin],108
5,Oc1cc(O)c2c(c1)O[C@H](c1ccc(O)c(O)c1)[C@H](O)C2 [Epicatechin],117

# Same assay, conditions: Homo sapiens, Synovial cell, 504 h; Example 1; 50 µM; weight of cartilage pellets relative to control taken as 100%; N = 3; read-out: Rate of increase (%)
row,SMILES,activity at 50 µM [%]
1,"O=C1c2c(O)cc(O)cc2O[C@H](c2ccc(O)c(O)c2)[C@H]1O [Taxifolin, taxifolin]",144
2,"COc1ccc([C@@H]2CC(=O)c3c(O)cc(O)cc3O2)cc1O [Hesperetin, hesperetin]",139

# Same assay, conditions: Homo sapiens, Synovial cell, 504 h; Example 2; 5 µM; weight of cartilage pellets relative to control taken as 100%; N = 3; read-out: Rate of increase (%)
row,SMILES,activity at 5 µM [%]
1,"COc1cc(-c2oc3cc(O)cc(O)c3c(=O)c2O)ccc1O [Isorham netin, isorhamnetin]",159
2,"O=c1c(O)c(-c2ccc(O)c(O)c2)oc2cc(O)cc(O)c12 [Quercetin, quercetin]",162
3,"O=C1C[C@@H](c2ccc(O)c(O)c2)Oc2cc(O)cc(O)c21 [Eriodictyol, eriodictyol]",132

# Same assay, conditions: Homo sapiens, Synovial cell, 504 h; Example 3; 5 µM; weight of cartilage pellets relative to control taken as 100%; N = 3; read-out: Rate of increase (%)
row,SMILES,activity at 5 µM [%]
1,"O=c1cc(-c2ccc(O)c(O)c2)oc2cc(O)cc(O)c12 [Luteolin, luteolin]",128
2,"O=c1c(O)c(-c2ccc(O)cc2O)oc2cc(O)cc(O)c12 [Morin, morin]",145
